In US9937194B1, “Compounds and methods for treating inflammatory diseases” (priority 2009, dated 2018):
Values after ≈ are worked out from the molar mass of the structure shown. Values joined by “and” are separate entries in the source; they are usually repeats but may differ in a detail not shown here. Equal entries are not always repeated. Where two headings read alike, the source gives them in different places.

Columns and labels:
HDAC activity = assay: H2O2-induced reduction of HDAC activity in PMA-differentiated U937 cells; assay type: cell-based, human; details: for restoration of H2O2-reduced HDAC activity (%): test concentration not given, bracketed second value not explained
Protocol: In cell HDAC assay. Cells are incubated with Fluor de Lys™ substrate for 1 hr before lyses. Total HDAC activity from whole cell extracts is measured using the HDAC Fluorimetric Assay/Drug Discovery Kit (BIOMOL® International, Inc., Plymouth Meeting, Pa.).
HDAC expression: In cell HDAC activity assay: U937 is differentiated to macrophage type cells by PMA for 3 days. HDAC fluorescent substrate (Biomol) is added before exposure of oxidative stress (H2O2, 200 μM) or Tobacco smoke conditioned medium for 4 hrs. HDAC activity is measured (Biomol kit). Compounds at different concentrations are treated 20 min before oxidative stress treatment.
PMA-differentiated macrophage-like cells are pretreated with compounds described herein for 20 min. After H2O2 (200 μM) stimulation for 4 hrs, HDAC activity is assayed. Data are expressed as fold changes against positive control treated with H2O2 only. Values represent means of four experiments±SEM.

Akt = assay: H2O2-induced phosphorylation of Akt in PMA-differentiated U937 cells (western blot); assay type: cell-based, human; details: PMA-differentiated U937; H2O2 1 mM 30 min
Protocol: Cell Lysis and Western Blotting. Whole cell protein extracts are prepared using modified RIPA buffer (50 mM Tris HCL pH 7.4, 0.5% NP-40, 0.25% Na-deoxycholate, 150 mM NaCl with freshly added complete protease (Roche). Phosphatase inhibitor (Active Motif) is also added when required. Protein concentration is determined using the Bio-Rad Protein Assay (Bio-Rad). Proteins are separated by SDS-PAGE under denaturing conditions, and electrotransferred to a nitrocellulose membrane (Amersham Biosciences, Amersham, U.K.) (Western blotting). The membranes are blocked in TBS containing 0.05% Tween 20 and 5% non-fat dried milk, and then incubated with anti-pAkt or Akt antibody followed by an horse radish peroxidase-conjugated secondary antibody (Dako UK Ltd., Ely, UK). Bound antibodies are visualized by ECL Plus (GE Healthcare UK Ltd., Little Chalfont, UK). The band density is calculated by densitometry (UVP Bioimaging Systems, Cambridge, UK) using Labworks software (Ultra-Violet Products, Cambridge, UK).
Effects of compounds on H2O2-induced phosphorylation of Akt in PMA-differentiated U937 cells. PMA-differentiated macrophage-like cells are pretreated with compounds described herein for 20 min. After H2O2 (1 mM) stimulation for 30 min, cells are lysed. Phosphorylation levels of Akt are measured by western blot. Data are calculated relative to total protein, and expressed as fold changes against positive control treated with H2O2 only. Values represent means of three or four experiments±SEM.

IL-8 = assay: LPS-induced IL-8 release in PMA-differentiated U937 cells (ELISA); assay type: cell-based, human; details: for IL-8 inhibition (%): test concentration not given
Protocol: (§1) Cytokine ELISA. LPS-induced IL-8, TNFα concentrations and TNFα-induced IL-8 concentrations are determined by sandwich ELISA according to the manufacturer's instructions (R&D Systems Europe). IC50 values for dexamethasone on IL-8 production are calculated using the computer program Prism 4.0 (GraphPad Software Inc., San Diego, Calif.) as a marker for steroid sensitivity.
(§2) Effects of compounds on LPS-induced IL-8 and TNFα release in PMA-differentiated U937 cells. PMA-differentiated macrophage-like cells are pretreated with compounds described herein for 1 hr, followed by LPS (100 ng/ml) stimulation for 4 hrs. LPS-induced IL-8 and TNFα release is evaluated by ELISA. Values represent means of three experiments±SEM.

TNFα = assay: LPS-induced TNFα release in PMA-differentiated U937 cells (ELISA); assay type: cell-based, human; details: for TNFα inhibition (%): test concentration not given
Protocol: as §1, §2

MMP9 = assay: PMA-induced MMP9 expression in U937 cells (gelatin zymography); assay type: cell-based, human; details: for MMP9 inhibition (%): test concentration not given, bracketed second value not explained
Protocol: Zymography. MMP9 enzyme activity is measured by gelatin zymography. 5 μl of supernatants were diluted with 5 μl Laemli sample buffer (Bio-Rad) and are loaded on a Novex® 10% Zymogram (Gelatin) gel (Invitrogen). After electrophoresis (90 min, 125 V, 35 mA, 5 W) gels are incubated with 1× Novex® zymogram renaturing buffer (Invitrogen) for 30 min at room temperature with gentle agitation. Gels are then rinsed in 1× Novex® zymogram developing buffer (Invitrogen) for 30 min at room temperature with gentle agitation prior to overnight incubation in the developing buffer at 37° C. After incubation the gels are stained using the colloidal blue staining kit (Invitrogen) with buffer containing 20% methanol and 70% distilled water to visualize the zymogen bands. Relevant band intensities are quantified by densitometric analysis using the UVP GelDoc-It system.
Effects of compounds on PMA-induced MMP9 expression in U937 cells. U937 cells are pretreated with compounds described herein for 1 hr, followed by PMA (50 ng/ml) treatment for 48 hrs. After 48 hrs supernatants are collected for zymography. MMP9 enzyme activity is measured by gelatin zymography. Data are expressed as fold changes against positive control treated with PMA only. Values represent means of three experiments±SEM.

U937 cells = assay: H2O2-induced steroid insensitivity in U937 cells (dexamethasone IC50 on TNFα-induced IL-8); assay type: cell-based, human; details: highest concentration tested (100 μM); H2O2 200 μM
Protocol: as §1
Restoration of steroid sensitivity. U937 cells: U937 are treated with oxidative stress (H2O2, 200 μM or 0.15 dilution CSM (cigarette smoke conditioned medium)) and 4 hours later, stimulated with TNFα (10 ng/ml) in the presence of dexamethasone (10^−11-10^−6M). Supernatant and cells are collected 24 hrs after stimulation and IL-8 is measured by conventional ELISA. As the index of corticosteroid sensitivity, IC50 of dexamethasone is calculated. Test compounds are treated 20 min before oxidative stress treatment.
Effects of compounds on H2O2-induced steroid insensitivity in U937 cells. Cells stimulated with H2O2 (200 μM) overnight are incubated with compounds described herein for 30 min under H2O2 (200 μM) exposure. The cells are treated with dexamethasone (10^−11 to 10^−6 M) for 20 min, followed by the TNFα stimulation overnight. TNFα-induced IL-8 release is evaluated by ELISA and IC50 values for dexamethasone on IL-8 production are calculated using Prism. Data are expressed as fold changes against positive control treated with H2O2 only. Values represent means of four experiments±SEM. H2O2 exposure reduces dexamethasone sensitivity by approximately 4 fold based on calculated IC50 values of TNFα-induced IL-8 production.

[1] = assay type: cell-based
Protocol: The human monocytic cell line U937 and the human type II alveolar epithelial carcinoma cell line A549 were obtained from the American Type Culture Collection (ATCC, Rockville, Md.). PBMCs from COPD patients were obtained in Brompton hospital and separated by AccuSPIN (Sigma-Aldrich, Poole, UK). Cells were cultured in complete growth medium (Sigma-Aldrich) (RPMI 1640 for U937, PBMCs, and Dulbecco's modified essential medium (DMEM) for A549) supplemented with 10% fetal bovine serum (FBS) and 1% L-glutamine at 37° C. in a humidified atmosphere with 5% CO2. U937 were differentiated into an adherent macrophage-like morphology by exposure to PMA (50 or 100 ng/ml) for 48 hrs in complete growth medium. Cell viability was assessed microscopically by trypan blue staining. Cell toxicity was determined by MTT assay as needed. This study was approved by the ethics committee of the Royal Brompton Hospitals, and all subjects gave written informed consent.

A/J mice exposed to LPS = assay: Anti-inflammatory activity in vivo: A/J mice exposed to LPS intranasally; details: intranasal, 1 hr before LPS challenge
K. pneumonia 13883 = assay: MIC; assay type: cell-based; details: in µg/mL
E. coli ATCC 25922 = assay: MIC; assay type: cell-based; details: in µg/mL
[2] = tested on: S. typhimurium ATCC 14028; assay: MIC; assay type: cell-based; details: in µg/mL
H. influenzae ATCC 49247 = assay: MIC; assay type: cell-based
H. influenzae LC002 = assay: MIC; assay type: cell-based
S. pneumoniae ATCC 49619 = assay: MIC; assay type: cell-based
S. pneumoniae 163 (MefA) = assay: MIC; assay type: cell-based; details: in µg/mL
S. pneumoniae 303 (ErmB) = assay: MIC; assay type: cell-based
[3] = tested on: S. aureus ATCC 29213 (MSSA) MLS-S; assay: MIC; assay type: cell-based
S. aureus MRSA 33591 = assay: MIC; assay type: cell-based
[4] = tested on: S. aureus 96:11480 (MLS-I); assay: MIC; assay type: cell-based; parameters: unit not given beside the values
S. pyogenes ATCC 19615 = assay: MIC; assay type: cell-based; details: in µg/mL
E. faecium ATCC 19434 = assay: MIC; assay type: cell-based
P. aeruginosa ATCC 27853 = assay: MIC; assay type: cell-based
[5] = tested on: N. gonorrhoeae ATCC 49226; assay: MIC; assay type: cell-based; parameters: unit not given beside the values

SMILES | restoration of H2O2-reduced HDAC activity (%) (HDAC activity) | IL-8 inhibition (%) (IL-8) | TNFα inhibition (%) (TNFα) | MMP9 inhibition (%) (MMP9) | Cell Toxicity (% cell death) ([1]; test concentration not given) [%] | MIC K. pneumonia 13883 (K. pneumonia 13883) | MIC E. coli ATCC 25922 (E. coli ATCC 25922) | MIC S. typhimurium ATCC 14028 [2] | MIC H. influenzae ATCC 49247 (H. influenzae ATCC 49247) [µg/mL] | MIC H. influenzae LC002 (H. influenzae LC002) [µg/mL] | MIC S. pneumoniae ATCC 49619 (S. pneumoniae ATCC 49619) [µg/mL] | MIC S. pneumoniae 163 (MefA) (S. pneumoniae 163 (MefA)) | MIC S. pneumoniae 303 (ErmB) (S. pneumoniae 303 (ErmB)) [µg/mL] | MIC S. aureus ATCC 29213 (MSSA) MLS-S [3] [µg/mL] | MIC S. aureus MRSA 33591 (S. aureus MRSA 33591) [µg/mL] | MIC S. aureus 96:11480 (MLS-I) [4] | MIC S. pyogenes ATCC 19615 (S. pyogenes ATCC 19615) | MIC E. faecium ATCC 19434 (E. faecium ATCC 19434) [µg/mL] | further results
CC[C@H]1OC(=O)[C@H](C)[C@@H](O[C@H]2C[C@@](C)(OC)[C@@H](O)[C@H](C)O2)[C@H](C)[C@@H](O[C@@H]2O[C@H](C)C[C@H](N(C)C)[C@H]2O)[C@](C)(O)C[C@@H](C)CN(C)[C@H](C)[C@@H](O)[C@]1(C)O [AZI, azithromycin, reference compound] | 34% | 44 | 31 | 33 (25) % |  |  |  |  |  |  |  |  |  |  |  |  |  |  | restoration of HDAC activity compared with Example 33 (HDAC activity; PMA-differentiated U937, H2O2 200 μM 4 hrs): only at much higher doses than Example 33; HDAC activity reached compared with untreated controls (HDAC activity; PMA-differentiated U937, H2O2 200 μM, comparators at highest doses tested): only restore HDAC activity to levels comparable to untreated controls; inhibition of Akt phosphorylation compared with Example 33 (Akt): only at much higher concentrations than Example 33; inhibition of LPS-induced IL-8 release compared with Example 33 (IL-8; LPS 100 ng/ml 4 hrs): did not show any inhibition at any concentration tested; inhibition of LPS-induced TNFα release compared with Example 33 (TNFα; LPS 100 ng/ml 4 hrs): did not show any inhibition at any concentration tested; restoration of dexamethasone sensitivity (U937 cells): None of ERY, CLR, or AZI restored dexamethasone sensitivity; Cell Toxicity (% cell death) ([1]; human): −16%; anti-inflammatory action in LPS-exposed A/J mice (A/J mice exposed to LPS): have anti-inflammatory action
CCC1OC(=O)C(C)C(=O)C(C)C(OC2OC(C)CC(N(C)C)C2O)C(C)(OC)CC(C)C(=O)C(C)C2N(CCCCN)C(=O)OC12C (stereo not drawn) [Example 1] | 68 (53) % | 72 | 73 | 55 (43) % | 6 | >64 | >64 | >64 | > 64 | > 64 | ≤ 0.125 | 0.5 and 1 | > 64 | 8 (≈ 11.7 µM) | > 64 | 8 | 0.25 and 0.5 | 4 (≈ 5.85 µM) | concentration at which the H2O2-induced reduction in HDAC activity is restored (HDAC activity; PMA-differentiated U937, pretreated 20 min, H2O2 200 μM 4 hrs): ≥ 100 µM; concentration at which PMA-induced MMP9 up-regulation is inhibited (MMP9; U937, pretreated 1 hr, PMA 50 ng/ml 48 hrs): ≥ 300 µM
CCC1OC(=O)C(C)(F)C(=O)C(C)C(OC2OC(C)CC(N(C)C)C2O)C(C)(OC)CC(C)C(=O)C(C)C2N(CCCCn3cc(Cn4nnc5ccccc54)nn3)C(=O)OC12C (stereo not drawn) [Example 22] | 22 (29) % | 76 | 48 | 38 (23) % | 11 | >64 | >64 | 64 | 2 (≈ 2.26 µM) |  | ≤ 0.125 | 64 | ≤ 0.125 | ≤ 0.125 | > 64 | ≤0.125 |  | ≤ 0.125 | MIC P. aeruginosa ATCC 27853 (P. aeruginosa ATCC 27853): > 64 µg/mL; MIC N. gonorrhoeae ATCC 49226 [5]: 0.25
CC[C@H]1OC(=O)[C@H](C)C(=O)[C@H](C)[C@@H](O[C@@H]2O[C@H](C)[C@@H](OC(C)=O)[C@H](NC(C)=O)[C@H]2OC(C)=O)[C@@](C)(OC)C[C@@H](C)C(=O)[C@H](C)[C@H]2N(CCCCn3cc(-c4ccccn4)nn3)C(=O)O[C@]12C [Example 23] | −13% | 13 | 76 | 32 (31) % | 9 | >64 |  |  | > 64 | > 64 | 4 (≈ 4.31 µM) | 2 | 16 (≈ 17.3 µM) | > 64 | > 64 | >64 | 16 | 16 (≈ 17.3 µM) | 
